In ChEMBL document CHEMBL3124789, “4,5-Dihydro-1H-pyrazolo[3,4-d]pyrimidine containing phenothiazines as antitubercular agents” (Bioorg Med Chem Lett, 2014):
Values after ≈ are worked out from the molar mass of the structure shown.

What was measured:
[1] = system: Mycobacterium tuberculosis; experiment: Antitubercular activity against Mycobacterium tuberculosis H37Rv assessed as growth inhibition at 6.25 ug/ml after 4 days by microplate alamar blue assay; assay type: functional; details: 96 h
[2] = Selectivity index, ratio of IC50 for African green monkey Vero cells to MIC for Mycobacterium tuberculosis H37Rv; assay type: toxicity, cell-based; details: read-out: Selectivity Index
[3] = system: Vero; experiment: Cytotoxicity against African green monkey Vero cells; assay type: cell-based; details: Chlorocebus sabaeus
[4] = system: Mycobacterium tuberculosis; experiment: Antitubercular activity against Mycobacterium tuberculosis H37Rv assessed as growth inhibition by 2-fold dilution assay; assay type: functional

| Structure (SMILES) | inhibition at 6.25 µg/mL [1] [%] | selectivity ratio [2] | IC50 [3] [µg/mL] | MIC [4] [µg/mL] |
| --- | --- | --- | --- | --- |
| Cc1nn(-c2ccc3c(c2)Nc2ccccc2S3)c2c1C(c1cccc(Cl)c1)NC(N)=N2 (centres undefined) | 56 |  |  |  |
| Cc1nn(-c2ccc3c(c2)Nc2ccccc2S3)c2c1C(c1ccccc1)NC(N)=N2 (centres undefined) | 78 |  |  |  |
| Cc1nn(-c2ccc3c(c2)Nc2ccccc2S3)c2c1C(c1ccccc1O)NC(N)=N2 (centres undefined) | 92 | 3.5 | 7.8 (≈ 17.7 µM) | 2.23 (≈ 5.06 µM) |
| Cc1nn(-c2ccc3c(c2)Nc2ccccc2S3)c2c1C(c1cccc(O)c1)NC(N)=N2 (centres undefined) | 57 |  |  |  |
| Cc1nn(-c2ccc3c(c2)Nc2ccccc2S3)c2c1C(c1ccc(O)cc1)NC(N)=N2 (centres undefined) | 67 |  |  |  |
| Cc1nn(-c2ccc3c(c2)Nc2ccccc2S3)c2c1C(c1ccccc1Cl)NC(N)=N2 (centres undefined) | 95 | 5.8 | > 10 | 1.73 (≈ 3.77 µM) |
| Cc1nn(-c2ccc3c(c2)Nc2ccccc2S3)c2c1C(c1ccc(Cl)cc1)NC(N)=N2 (centres undefined) | 100 | > 500 | > 10 | 0.02 (≈ 0.0436 µM) |
| Cc1nn(-c2ccc3c(c2)Nc2ccccc2S3)c2c1C(c1ccccc1[N+](=O)[O-])NC(N)=N2 (centres undefined) | 94 | 5.8 | > 10 | 1.73 (≈ 3.68 µM) |
| Cc1nn(-c2ccc3c(c2)Nc2ccccc2S3)c2c1C(c1cccc([N+](=O)[O-])c1)NC(N)=N2 (centres undefined) | 73 |  |  |  |
| Cc1nn(-c2ccc3c(c2)Nc2ccccc2S3)c2c1C(c1ccc([N+](=O)[O-])cc1)NC(N)=N2 (centres undefined) | 95 | 5.2 | 9.1 (≈ 19.4 µM) | 1.73 (≈ 3.68 µM) |
| COc1ccc(C2NC(N)=Nc3c2c(C)nn3-c2ccc3c(c2)Nc2ccccc2S3)cc1 (centres undefined) | 42 |  |  |  |
| NNC(=O)c1ccncc1 [ISONIAZID] |  | > 40000 | > 1000 | 0.03 (≈ 0.219 µM) |
